From US20260042731A1, “(2,4-DICHLOROPHENOXY)ACETIC ACID ANALOGS” (CORTEVA AGRISCIENCE LLC, priority 2022, published 2026)
Where two headings read alike, the source gives them in different places.

Legend:
[1] = tested on: weeds (ABUTH, AMATA, AMBEL, CHEAL, ERICA); experiment: Postemergence herbicide evaluation, overall average % weed control across ABUTH, AMATA, AMBEL, CHEAL, ERICA; assay type: in vivo; conditions: post-emergence, average over the five weeds, read-out: Overall Ave % Weed Control; for pest or weed control at 280 g/ha: 280 g ae/ha; for pest or weed control at 560 g/ha: 560 g ae/ha
[2] = tested on: glyphosate resistant Conyza canadensis (L.) (ERICA), horseweed; experiment: Postemergence herbicide evaluation, growth of Conyza canadensis (ERICA); assay type: in vivo; conditions: Erigeron canadensis, post-emergence, percent reduction in plant size relative to untreated control, read-out: Ave. ERICA; for pest or weed control at 280 g/ha: 280 g ae/ha; for pest or weed control at 560 g/ha: 560 g ae/ha
[3] = Volatility of compounds measured by thermogravimetric analysis (TGA); assay type: physicochemical
[4] = tested on: Chenopodium album (CHEAL), common lambsquarters; experiment: Postemergence herbicide evaluation, growth of Chenopodium album (CHEAL); assay type: in vivo; conditions: Chenopodium album, post-emergence, percent reduction in plant size relative to untreated control, read-out: Ave. CHEAL; for pest or weed control at 280 g/ha: 280 g ae/ha; for pest or weed control at 560 g/ha: 560 g ae/ha
[5] = tested on: Amaranthus rudis (AMATA), tall water hemp; experiment: Postemergence herbicide evaluation, growth of Amaranthus rudis (AMATA); assay type: in vivo; conditions: Amaranthus tuberculatus, post-emergence, percent reduction in plant size relative to untreated control, read-out: Ave. AMATA; for pest or weed control at 280 g/ha: 280 g ae/ha; for pest or weed control at 560 g/ha: 560 g ae/ha
[6] = tested on: Abutilon theophrasti (ABUTH), velvetleaf; experiment: Postemergence herbicide evaluation, growth of Abutilon theophrasti (ABUTH); assay type: in vivo; conditions: Abutilon theophrasti, post-emergence, percent reduction in plant size relative to untreated control, read-out: AVE. ABUTH; for pest or weed control at 280 g/ha: 280 g ae/ha; for pest or weed control at 560 g/ha: 560 g ae/ha
[7] = tested on: Ambrosia artemisiifolia (AMBEL), common ragweed; experiment: Postemergence herbicide evaluation, growth of Ambrosia artemisiifolia (AMBEL); assay type: in vivo; conditions: Ambrosia artemisiifolia, post-emergence, percent reduction in plant size relative to untreated control, read-out: AVE. AMBEL; for pest or weed control at 280 g/ha: 280 g ae/ha; for pest or weed control at 560 g/ha: 560 g ae/ha

Compound	pest or weed control at 280 g/ha ([1]; 168 h, 7 DAA) [%]	pest or weed control at 560 g/ha ([1]; 168 h, 7 DAA) [%]	pest or weed control at 280 g/ha ([1]; 336 h, 14 DAA) [%]	pest or weed control at 560 g/ha ([1]; 336 h, 14 DAA) [%]	pest or weed control at 280 g/ha ([1]; 504 h, 21 DAA) [%]	pest or weed control at 560 g/ha ([1]; 504 h, 21 DAA) [%]	pest or weed control at 280 g/ha ([2]; 168 h, 7 DAA) [%]	pest or weed control at 560 g/ha ([2]; 168 h, 7 DAA) [%]	pest or weed control at 280 g/ha ([2]; 336 h, 14 DAA) [%]	pest or weed control at 560 g/ha ([2]; 336 h, 14 DAA) [%]	pest or weed control at 280 g/ha ([2]; 504 h, 21 DAA) [%]	pest or weed control at 560 g/ha ([2]; 504 h, 21 DAA) [%]	TGA Data (rate of weight loss, volatility) [3] [µg/min]	pest or weed control at 280 g/ha ([4]; 168 h, 7 DAA) [%]	pest or weed control at 560 g/ha ([4]; 168 h, 7 DAA) [%]	pest or weed control at 280 g/ha ([4]; 336 h, 14 DAA) [%]	pest or weed control at 560 g/ha ([4]; 336 h, 14 DAA) [%]	pest or weed control at 280 g/ha ([4]; 504 h, 21 DAA) [%]	pest or weed control at 560 g/ha ([4]; 504 h, 21 DAA) [%]	pest or weed control at 280 g/ha ([5]; 168 h, 7 DAA) [%]	other results
O=C(COc1ccc(Cl)cc1Cl)ON1C(=O)c2ccccc2C1=O [Compound A15, 1,3-Dioxoisoindolin-2-yl 2-(2,4-dichlorophenoxy)acetate]	72	74	82	84	87	89	68	65	78	88	88	95	0.1	68	70	73	70	80	75	73	pest or weed control at 560 g/ha ([5]; 168 h, 7 DAA): 73%; pest or weed control at 280 g/ha ([5]; 336 h, 14 DAA): 82%; pest or weed control at 560 g/ha ([5]; 336 h, 14 DAA): 78%; pest or weed control at 280 g/ha ([5]; 504 h, 21 DAA): 84%; pest or weed control at 560 g/ha ([5]; 504 h, 21 DAA): 83%; pest or weed control at 280 g/ha ([6]; 168 h, 7 DAA): 78%; pest or weed control at 560 g/ha ([6]; 168 h, 7 DAA): 85%; pest or weed control at 280 g/ha ([6]; 336 h, 14 DAA): 83%; pest or weed control at 560 g/ha ([6]; 336 h, 14 DAA): 95%; pest or weed control at 280 g/ha ([6]; 504 h, 21 DAA): 88%; pest or weed control at 560 g/ha ([6]; 504 h, 21 DAA): 99%; pest or weed control at 280 g/ha ([7]; 168 h, 7 DAA): 73%; pest or weed control at 560 g/ha ([7]; 168 h, 7 DAA): 75%; pest or weed control at 280 g/ha ([7]; 336 h, 14 DAA): 95%; pest or weed control at 560 g/ha ([7]; 336 h, 14 DAA): 88%; pest or weed control at 280 g/ha ([7]; 504 h, 21 DAA): 98%; pest or weed control at 560 g/ha ([7]; 504 h, 21 DAA): 95%
CN(OC(=O)COc1ccc(Cl)cc1Cl)C(=O)c1ccccc1 [Compound A16, N-(2-(2,4-Dichlorophenoxy)acetoxy)-N-methylbenzamide]	70	78	81	89	81	96	68	75	85	92	93	100	4.3	63	68	70	80	68	95	65	pest or weed control at 560 g/ha ([5]; 168 h, 7 DAA): 83%; pest or weed control at 280 g/ha ([5]; 336 h, 14 DAA): 73%; pest or weed control at 560 g/ha ([5]; 336 h, 14 DAA): 83%; pest or weed control at 280 g/ha ([5]; 504 h, 21 DAA): 65%; pest or weed control at 560 g/ha ([5]; 504 h, 21 DAA): 87%; pest or weed control at 280 g/ha ([6]; 168 h, 7 DAA): 85%; pest or weed control at 560 g/ha ([6]; 168 h, 7 DAA): 88%; pest or weed control at 280 g/ha ([6]; 336 h, 14 DAA): 93%; pest or weed control at 560 g/ha ([6]; 336 h, 14 DAA): 96%; pest or weed control at 280 g/ha ([6]; 504 h, 21 DAA): 94%; pest or weed control at 560 g/ha ([6]; 504 h, 21 DAA): 99%; pest or weed control at 280 g/ha ([7]; 168 h, 7 DAA): 70%; pest or weed control at 560 g/ha ([7]; 168 h, 7 DAA): 78%; pest or weed control at 280 g/ha ([7]; 336 h, 14 DAA): 83%; pest or weed control at 560 g/ha ([7]; 336 h, 14 DAA): 97%; pest or weed control at 280 g/ha ([7]; 504 h, 21 DAA): 88%; pest or weed control at 560 g/ha ([7]; 504 h, 21 DAA): 100%
O=C(COc1ccc(Cl)cc1Cl)O/N=C/c1ccc(/C=N/OC(=O)COc2ccc(Cl)cc2Cl)cc1 [Compound B3, (1,1′)-4-(-((2-(2,4-Dichlorophenoxy)acetoxy)imino)methyl)benzaldehyde-O-(2-(2,4-dichlorophenoxy)acetyl) oxime]	47	62	52	65	53	66	55	65	78	80	85	80	0.8	65	68	68	70	68	70	60	pest or weed control at 560 g/ha ([5]; 168 h, 7 DAA): 70%; pest or weed control at 280 g/ha ([5]; 336 h, 14 DAA): 58%; pest or weed control at 560 g/ha ([5]; 336 h, 14 DAA): 68%; pest or weed control at 280 g/ha ([5]; 504 h, 21 DAA): 58%; pest or weed control at 560 g/ha ([5]; 504 h, 21 DAA): 68%; pest or weed control at 280 g/ha ([6]; 168 h, 7 DAA): 33%; pest or weed control at 560 g/ha ([6]; 168 h, 7 DAA): 60%; pest or weed control at 280 g/ha ([6]; 336 h, 14 DAA): 13%; pest or weed control at 560 g/ha ([6]; 336 h, 14 DAA): 58%; pest or weed control at 280 g/ha ([6]; 504 h, 21 DAA): 12%; pest or weed control at 560 g/ha ([6]; 504 h, 21 DAA): 58%; pest or weed control at 280 g/ha ([7]; 168 h, 7 DAA): 23%; pest or weed control at 560 g/ha ([7]; 168 h, 7 DAA): 48%; pest or weed control at 280 g/ha ([7]; 336 h, 14 DAA): 45%; pest or weed control at 560 g/ha ([7]; 336 h, 14 DAA): 50%; pest or weed control at 280 g/ha ([7]; 504 h, 21 DAA): 45%; pest or weed control at 560 g/ha ([7]; 504 h, 21 DAA): 53%
